Common to all, as to type: functional
For test [1], the system named is Staphylococcus aureus. Nature of the test: Compound was tested for antibacterial activity against MRSA ATCC 33591, expressed as minimum bactericidal concentration (MBC).
In test [2] the test system is Staphylococcus aureus. Nature of the test: Compound was tested for antibacterial activity against MRSA ATCC 33591, expressed as minimum inhibitory concentration (MIC).
The subject of another test is Bacillus subtilis. Kind of test: Compound was tested for antibacterial activity against Bacillus subtilis.
The next test concerns Bacillus thuringiensis. Kind of test: Compound was tested for antibacterial activity against Bacillus thuringiensis.
For test [3], the system named is Corynebacterium ammoniagenes. Nature of the test: Compound was tested for antibacterial activity against Brevibacterium ammoniagenes.
In a further test the test system is Micrococcus luteus. Nature of the test: Compound was tested for antibacterial activity against Micrococcus luteus.
The subject of the next test is Cutibacterium acnes. Kind of test: Compound was tested for antibacterial activity against Propionibacterium acnes.
In test [4] the test system is Staphylococcus aureus. Kind of test: Compound was tested for antibacterial activity against Staphylococcus aureus.
In test [5] the test system is Staphylococcus aureus. Kind of test: Compound was tested for antibacterial activity against Staphylococcus aureus (MRSA).
In test [6] the test system is Staphylococcus aureus. Nature of the test: Compound was tested for antibacterial activity against MRSA ATCC 33591, expressed as aminimum inhibitory concentration (MIC).
The test system of a further test is Streptococcus mutans. Kind of test: Compound was tested for antibacterial activity against Streptococcus mutans.

Usually MBC stands for the lowest tested concentration that kills the bacteria rather than only halting them. Read a low MBC as more potent killing. Broadly, the MIC is the least concentration at which growth counts as inhibited. Read a high MIC as weaker potency.

≈ marks a conversion by molar mass, not a printed value. Some results are limits rather than exact numbers.

Consider `CCCCCCCCCCCOC(=O)c1cccc(O)c1`, for which the MBC in the test on Staphylococcus aureus [1] came to 50 µg/mL (≈ 171 µM). Also, it took 50 µg/mL (≈ 171 µM) to inhibit growth in the test with Staphylococcus aureus [2] (MIC).

In the case of `CCCCCCCCCCCOC(=O)c1cc(O)cc(O)c1`, the MBC against Staphylococcus aureus [1] was found to be 50 µg/mL (≈ 162 µM). In the test on Staphylococcus aureus [2], this compound returned an MIC of 50 µg/mL (≈ 162 µM).

For `CCCCCCCCCCOC(=O)c1cc(O)c(O)c(O)c1` [DECYL GALLATE], the MBC against Staphylococcus aureus [1] was 25 µg/mL (≈ 80.5 µM). In addition, the lowest concentration to inhibit growth with Staphylococcus aureus [2] (MIC) was 12.5 µg/mL (≈ 40.3 µM).

As to `CCCCCCCCCCCCOC(=O)c1cc(O)c(O)c(O)c1` [DODECYL GALLATE], the MBC against Bacillus subtilis stood at 25 µg/mL (≈ 73.9 µM); in test [3], 25 µg/mL (≈ 73.9 µM); with Micrococcus luteus it was 25 µg/mL (≈ 73.9 µM); with Cutibacterium acnes, 6.25 µg/mL (≈ 18.5 µM); with Staphylococcus aureus [1], 25 µg/mL (≈ 73.9 µM); with Staphylococcus aureus [4], 25 µg/mL (≈ 73.9 µM). Also, the MBC against Staphylococcus aureus [5] was determined as 25 µg/mL (≈ 73.9 µM); in the test with Streptococcus mutans, 100 µg/mL (≈ 295 µM). Besides, the MIC in the test on Bacillus subtilis was 25 µg/mL (≈ 73.9 µM); against Bacillus thuringiensis it was 50 µg/mL (≈ 148 µM); in test [3] it was 25 µg/mL (≈ 73.9 µM); in the test on Micrococcus luteus, 12.5 µg/mL (≈ 36.9 µM); in the test with Cutibacterium acnes it was 6.25 µg/mL (≈ 18.5 µM); in the test with Staphylococcus aureus [4] it was 12.5 µg/mL (≈ 36.9 µM). In addition, the minimal inhibitory concentration (MIC) against Staphylococcus aureus [5] was found to be 12.5 µg/mL (≈ 36.9 µM); with Staphylococcus aureus [6], 12.5 µg/mL (≈ 36.9 µM); in the test on Streptococcus mutans, 100 µg/mL (≈ 295 µM).

Compound `CCCCCCCOC(=O)c1cc(O)c(O)c(O)c1` [HEPTYL GALLATE] came in with a minimum bactericidal concentration (MBC) in the test on Staphylococcus aureus [1] of 100 µg/mL (≈ 373 µM). Besides, the MIC against Staphylococcus aureus [2] is 25 µg/mL (≈ 93.2 µM).

For the compound `CCCCCCOC(=O)c1cc(O)c(O)c(O)c1` [HEXYL GALLATE], the minimum bactericidal concentration (MBC) in the test on Staphylococcus aureus [1] came to 200 µg/mL (≈ 787 µM). Further, inhibition of growth against Staphylococcus aureus [2] (MIC) required 50 µg/mL (≈ 197 µM).

For the compound `COc1cccc(OC)c1C(=O)N[C@@H]1C(=O)N2[C@@H]1SC(C)(C)[C@@H]2C(=O)O` [METHICILLIN], the MBC in the test on Staphylococcus aureus [1] is over 800 µg/mL. The minimal inhibitory concentration (MIC) against Staphylococcus aureus [2] is 800 µg/mL (≈ 2100 µM).

In the test on Staphylococcus aureus [1], `CCCCCCCCCOC(=O)c1cc(O)c(O)c(O)c1` [NONYL GALLATE] showed a minimum bactericidal concentration (MBC) of 50 µg/mL (≈ 169 µM). In the test on Staphylococcus aureus [2], this compound gave an MIC of 25 µg/mL (≈ 84.4 µM).

With `CCCCCCCCOC(=O)c1cc(O)c(O)c(O)c1` [OCTYL_GALLATE], in the test with Staphylococcus aureus [1], the MBC was found to be 50 µg/mL (≈ 177 µM). Also, inhibition of growth against Staphylococcus aureus [2] (MIC) required 25 µg/mL (≈ 88.5 µM).

`CCCOC(=O)c1cc(O)c(O)c(O)c1` [PROPYL GALLATE] gave an MBC in the test on Staphylococcus aureus [1] of 3200 µg/mL (≈ 15100 µM). Besides, inhibition of growth against Staphylococcus aureus [2] (MIC) required 1600 µg/mL (≈ 7540 µM).

Compound `CCCCCCCCCCCOC(=O)c1cc(O)c(O)c(O)c1` [UNDECYL GALLATE] yielded an MBC in the test with Staphylococcus aureus [1] of 25 µg/mL (≈ 77.1 µM). In addition, it took 12.5 µg/mL (≈ 38.5 µM) to inhibit growth against Staphylococcus aureus [2] (MIC).

Source of the values: ChEMBL document CHEMBL1135357, “Anti-MRSA activity of alkyl gallates” (2002).
